# Source: ChEMBL document CHEMBL4229379, “Synthesis and structure-activity relationship of novel bisindole amidines active against MDR Gram-positive and Gram-negative bacteria” (Eur J Med Chem, 2018)
# Key:
# [1] = system: Stenotrophomonas maltophilia; assay: Antibacterial activity against Stenotrophomonas maltophilia ATCC 13636 after 18 hrs by CLSI broth microdilution method; format: functional; details: ATCC 13636, 18 h
# [2] = system: Enterococcus faecalis; assay: Antibacterial activity against vancomycin-sensitive Enterococcus faecalis ATCC 29212 after 18 hrs by CLSI broth microdilution method; format: functional; details: ATCC 29212, 18 h
# [3] = system: Staphylococcus aureus; assay: Antibacterial activity against methicillin-resistant Staphylococcus aureus 12-33 after 18 hrs by CLSI broth microdilution method; format: functional; details: 12-33, 18 h
# [4] = system: Klebsiella pneumoniae; assay: Antibacterial activity against extended-spectrum beta-lactamase deficient Klebsiella pneumoniae 12-4 after 18 hrs by CLSI broth microdilution method; format: functional; details: 12-4, 18 h
# [5] = system: Pseudomonas aeruginosa; assay: Antibacterial activity against Pseudomonas aeruginosa 12-16 after 18 hrs by CLSI broth microdilution method; format: functional; details: 12-16, 18 h
# [6] = system: Serratia marcescens; assay: Antibacterial activity against Serratia marcescens ATCC 21074 after 18 hrs by CLSI broth microdilution method; format: functional; details: ATCC 21074, 18 h
# [7] = system: Enterococcus faecalis; assay: Antibacterial activity against vancomycin-resistant Enterococcus faecalis ATCC 51299 after 18 hrs by CLSI broth microdilution method; format: functional; details: ATCC 51299, 18 h
# [8] = system: Staphylococcus aureus; assay: Antibacterial activity against methicillin-sensitive Staphylococcus aureus 15 after 18 hrs by CLSI broth microdilution method; format: functional; details: Staphylococcus aureus, 15, 18 h
# [9] = system: Staphylococcus aureus; assay: Antibacterial activity against methicillin-sensitive Staphylococcus aureus ATCC 29213 after 18 hrs by CLSI broth microdilution method; format: functional; details: ATCC 29213, 18 h
# [10] = system: Enterobacter cloacae; assay: Antibacterial activity against Enterobacter cloacae ATCC 43560 after 18 hrs by CLSI broth microdilution method; format: functional; details: ATCC 43560, 18 h
# [11] = system: Staphylococcus epidermidis; assay: Antibacterial activity against methicillin-resistant Staphylococcus epidermidis 12-8 after 18 hrs by CLSI broth microdilution method; format: functional; details: 12-8, 18 h
# [12] = system: Enterococcus faecium; assay: Antibacterial activity against vancomycin-sensitive Enterococcus faecium 12-3 after 18 hrs by CLSI broth microdilution method; format: functional; details: 12-3, 18 h
# [13] = system: Klebsiella aerogenes; assay: Antibacterial activity against Enterobacter aerogenes ATCC 13048 after 18 hrs by CLSI broth microdilution method; format: functional; details: ATCC 13048, 18 h
# [14] = system: Escherichia coli; assay: Antibacterial activity against extended-spectrum beta-lactamase deficient Escherichia coli 1515 after 18 hrs by CLSI broth microdilution method; format: functional; details: Escherichia coli, 1515, 18 h
# [15] = system: Citrobacter freundii; assay: Antibacterial activity against Citrobacter freundii ATCC 43864 after 18 hrs by CLSI broth microdilution method; format: functional; details: ATCC 43864, 18 h
# [16] = system: Enterococcus faecalis; assay: Antibacterial activity against vancomycin-resistant Enterococcus faecalis 09-9 after 18 hrs by CLSI broth microdilution method; format: functional; details: 09-9, 18 h
# [17] = system: Proteus mirabilis; assay: Antibacterial activity against Proteus mirabilis 12-6 after 18 hrs by CLSI broth microdilution method; format: functional; details: 12-6, 18 h
# [18] = system: Staphylococcus epidermidis; assay: Antibacterial activity against methicillin-sensitive Staphylococcus epidermidis ATCC 12228 after 18 hrs by CLSI broth microdilution method; format: functional; details: ATCC 12228, 18 h
# [19] = system: Enterococcus faecalis; assay: Antibacterial activity against vancomycin-sensitive Enterococcus faecalis 12-5 after 18 hrs by CLSI broth microdilution method; format: functional; details: 12-5, 18 h
# [20] = system: Pseudomonas aeruginosa; assay: Antibacterial activity against Pseudomonas aeruginosa PAO1 after 18 hrs by CLSI broth microdilution method; format: functional; details: PAO1, 18 h
# [21] = Cytotoxicity against HEK293T cells assessed as reduction in cell viability after 48 hrs by MTS assay; format: cell-based, HEK-293T; details: human
# [22] = system: Acinetobacter calcoaceticus; assay: Antibacterial activity against Acinetobacter calcoaceticus ATCC 19606 after 18 hrs by CLSI broth microdilution method; format: functional; details: ATCC 19606, 18 h
# [23] = system: Escherichia coli; assay: Antibacterial activity against extended-spectrum beta-lactamase harboring Escherichia coli 12-15 after 18 hrs by CLSI broth microdilution method; format: functional; details: 12-15, 18 h
# [24] = system: Escherichia coli; assay: Antibacterial activity against extended-spectrum beta-lactamase deficient Escherichia coli 12-14 after 18 hrs by CLSI broth microdilution method; format: functional; details: 12-14, 18 h
# [25] = system: Pseudomonas aeruginosa; assay: Antibacterial activity against Pseudomonas aeruginosa ATCC 27853 after 18 hrs by CLSI broth microdilution method; format: functional; details: ATCC 27853, 18 h
# [26] = system: Staphylococcus aureus; assay: Antibacterial activity against methicillin-sensitive Staphylococcus aureus 12-28 after 18 hrs by CLSI broth microdilution method; format: functional; details: 12-28, 18 h
# [27] = system: Enterococcus faecium; assay: Antibacterial activity against vancomycin-resistant Enterococcus faecium 12-1 after 18 hrs by CLSI broth microdilution method; format: functional; details: 12-1, 18 h
# [28] = system: Proteus vulgaris; assay: Antibacterial activity against Proteus vulgaris ATCC 29905 after 18 hrs by CLSI broth microdilution method; format: functional; details: ATCC 29905, 18 h
# [29] = system: Staphylococcus aureus; assay: Antibacterial activity against methicillin-resistant Staphylococcus aureus ATCC 33591 after 18 hrs by CLSI broth microdilution method; format: functional; details: ATCC 33591, 18 h
# [30] = system: Staphylococcus epidermidis; assay: Antibacterial activity against methicillin-sensitive Staphylococcus epidermidis 12-6 after 18 hrs by CLSI broth microdilution method; format: functional; details: 12-6, 18 h
# [31] = system: Klebsiella pneumoniae; assay: Antibacterial activity against extended-spectrum beta-lactamase harboring Klebsiella pneumoniae ATCC 700603 after 18 hrs by CLSI broth microdilution method; format: functional; details: Klebsiella pneumoniae, 700603, 18 h
# [32] = system: Enterococcus faecium; assay: Antibacterial activity against vancomycin-resistant Enterococcus faecium ATCC 700221 after 18 hrs by CLSI broth microdilution method; format: functional; details: ATCC 700221, 18 h
# [33] = system: Klebsiella pneumoniae; assay: Antibacterial activity against new delhi metallo-beta-lactamase-1 harboring Klebsiella pneumoniae ATCC BAA-2146 after 18 hrs by CLSI broth microdilution method; format: functional; details: ATCC BAA-2146, 18 h
# [34] = system: Providencia rettgeri; assay: Antibacterial activity against Providencia rettgeri ATCC 31052 after 18 hrs by CLSI broth microdilution method; format: functional; details: ATCC 31052, 18 h
# [35] = system: Klebsiella pneumoniae; assay: Antibacterial activity against extended-spectrum beta-lactamase harboring Klebsiella pneumoniae 12-8 after 18 hrs by CLSI broth microdilution method; format: functional; details: 12-8, 18 h
# [36] = system: Escherichia coli; assay: Antibacterial activity against extended-spectrum beta-lactamase deficient Escherichia coli ATCC 25922 after 18 hrs by CLSI broth microdilution method; format: functional; details: ATCC 25922, 18 h
# [37] = system: Klebsiella pneumoniae; assay: Antibacterial activity against extended-spectrum beta-lactamase deficient Klebsiella pneumoniae 7 after 18 hrs by CLSI broth microdilution method; format: functional; details: Klebsiella pneumoniae, 7, 18 h
Structure (SMILES),MIC [1],MIC [2],MIC [3],MIC [4],MIC [5],MIC [6],MIC [7],MIC [8],MIC [9],MIC [10],MIC [11],MIC [12],MIC [13],MIC [14],MIC [15],MIC [16],MIC [17],MIC [18],MIC [19],MIC [20],other results
CN1CCN(C(=N)c2ccc3cc(-c4ccc(-c5cc6ccc(C(=N)N7CCN(C)CC7)cc6[nH]5)cc4)[nH]c3c2)CC1,128 µg/mL,8 µg/mL,1 µg/mL,64 µg/mL,> 128 µg/mL,> 128 µg/mL,64 µg/mL,1 µg/mL,1 µg/mL,8 µg/mL,1 µg/mL,8 µg/mL,16 µg/mL,8 µg/mL,8 µg/mL,8 µg/mL,> 128 µg/mL,1 µg/mL,64 µg/mL,128 µg/mL,CC50 at 48 h [21]: 18.9 µg/mL; MIC [22]: 128 µg/mL; MIC [23]: 8 µg/mL; MIC [24]: 8 µg/mL; MIC [25]: 64 µg/mL; MIC [26]: 1 µg/mL; MIC [27]: 8 µg/mL; MIC [28]: 16 µg/mL; MIC [29]: 1 µg/mL; MIC [30]: 2 µg/mL; MIC [31]: 64 µg/mL; MIC [32]: 8 µg/mL; MIC [33]: 16 µg/mL; MIC [34]: 8 µg/mL; MIC [35]: 16 µg/mL; MIC [36]: 8 µg/mL; MIC [37]: 16 µg/mL
COCCNC(=N)c1ccc2cc(-c3ccc(-c4cc5ccc(C(=N)NCCOC)cc5[nH]4)cc3)[nH]c2c1,16 µg/mL,0.5 µg/mL,0.25 µg/mL,8 µg/mL,32 µg/mL,16 µg/mL,0.5 µg/mL,0.25 µg/mL,0.25 µg/mL,2 µg/mL,0.125 µg/mL,0.5 µg/mL,8 µg/mL,8 µg/mL,2 µg/mL,1 µg/mL,32 µg/mL,0.125 µg/mL,2 µg/mL,32 µg/mL,CC50 at 48 h [21]: 3.95 µg/mL; MIC [22]: 32 µg/mL; MIC [23]: 4 µg/mL; MIC [24]: 2 µg/mL; MIC [25]: 16 µg/mL; MIC [26]: 0.25 µg/mL; MIC [27]: 0.5 µg/mL; MIC [28]: 16 µg/mL; MIC [29]: 0.25 µg/mL; MIC [30]: 0.125 µg/mL; MIC [31]: 16 µg/mL; MIC [32]: 0.5 µg/mL; MIC [33]: 8 µg/mL; MIC [34]: 8 µg/mL; MIC [35]: 8 µg/mL; MIC [36]: 2 µg/mL; MIC [37]: 8 µg/mL
CCC(C)NC(=N)c1ccc2cc(-c3cncc(-c4cc5ccc(C(=N)NC(C)CC)cc5[nH]4)c3)[nH]c2c1 (stereo unspecified),> 64 µg/mL,> 64 µg/mL,16 µg/mL,> 64 µg/mL,> 64 µg/mL,> 64 µg/mL,> 64 µg/mL,16 µg/mL,8 µg/mL,> 64 µg/mL,8 µg/mL,> 64 µg/mL,> 64 µg/mL,> 64 µg/mL,> 64 µg/mL,> 64 µg/mL,> 64 µg/mL,8 µg/mL,> 64 µg/mL,> 64 µg/mL,CC50 at 48 h [21]: 22.8 µg/mL; MIC [22]: > 64 µg/mL; MIC [23]: > 64 µg/mL; MIC [24]: > 64 µg/mL; MIC [25]: > 64 µg/mL; MIC [26]: 16 µg/mL; MIC [27]: 64 µg/mL; MIC [28]: > 64 µg/mL; MIC [29]: 8 µg/mL; MIC [30]: 8 µg/mL; MIC [31]: > 64 µg/mL; MIC [32]: > 64 µg/mL; MIC [33]: > 64 µg/mL; MIC [34]: > 64 µg/mL; MIC [35]: > 64 µg/mL; MIC [36]: > 64 µg/mL; MIC [37]: > 64 µg/mL
